Data as given in US20200222474A1, “COMPOSITIONS AND METHODS FOR INCREASING PHYTOCHEMICAL BIOAVAILABLITY AND BIOACTIVITY” (North Carolina State University, priority 2017, published 2020).

Test system: L. acidophilus NCFM
Experiment: RNA-seq transcriptional analysis of L. acidophilus NCFM growing on plant glycosides
Type: cell-based, Lactobacillus acidophilus
[1] = LBA0329 Putative cell division protein, COG D
[2] = LBA0466 Hypothetical protein, COG C
[3] = LBA0500 MSM operon repressor, COG K
[4] = LBA0545 Hypothetical protein, COG L
[5] = LBA0547 Putative site-specific recombinase, COG L
[6] = LBA0573 Putative transcriptional regulator, COG K
[7] = LBA0607 Putative transcriptional regulator, COG K
[8] = LBA0672 Putative phosphate starvation inducible protein stress related, COG J
[9] = LBA0753 Multi-drug-type permease, COG GEPR
[10] = LBA0886 Sugar kinase-putative transcriptional regulator, COG KG
[11] = LBA0887 Hypothetical protein, COG C
[12] = LBA0897 Putative Cro-like protein, COG K
[13] = LBA0910 L-lactate dehydrogenase, COG C
[14] = LBA1021 Putative transcriptional regulator, COG K
[15] = LBA1220 Pyridine mercuric reductase, COG C
[16] = LBA1392 Mucus binding protein precursor Mub, COG J
[17] = LBA1411 Fumarate reductase flavoprotein subunit, COG CS
[18] = LBA1436 Glycerol uptake facilitator protein, COG G
[19] = LBA1457 Galactose-1-epimerase, COG G
[20] = LBA1458 Galactose-1-phosphate uridylyltransferase, COG G
[21] = LBA1462 Beta-galactosidase, COG G
[22] = LBA1463 Lactose permease, COG G
[23] = LBA1465 Transcription repressor of beta-galactosidasegene, COG K
[24] = LBA1467 Beta-galactosidase large subunit (lactase), COG G
[25] = LBA1468 Beta-galactosidase small subunit, COG G

Compound: O=c1ccc2cc(O[C@@H]3O[C@H](CO)[C@@H](O)[C@H](O)[C@H]3O)c(O)cc2o1 [Esculin]
- Log2 differential normalized TPM ratio compared to glucose (LBA0016 Fructokinase, COG KG): 1.9
- Log2 differential normalized TPM ratio compared to lactose (LBA0016 Fructokinase, COG KG): 0.7
- Transcripts per million (rpm) (LBA0016 Fructokinase, COG KG): 347.8 rpm
- Log2 differential normalized TPM ratio compared to glucose [1]: 2.4
- Log2 differential normalized TPM ratio compared to lactose [1]: 1.9
- Transcripts per million (rpm) [1]: 88.3 rpm
- Log2 differential normalized TPM ratio compared to glucose [2]: 2
- Log2 differential normalized TPM ratio compared to lactose [2]: 0.5
- Transcripts per million (rpm) [2]: 408.4 rpm
- Log2 differential normalized TPM ratio compared to glucose [3]: 0.5
- Log2 differential normalized TPM ratio compared to lactose [3]: −1.1
- Transcripts per million (rpm) [3]: 78.4 rpm
- Log2 differential normalized TPM ratio compared to glucose [4]: 1.9
- Log2 differential normalized TPM ratio compared to lactose [4]: −0.1
- Transcripts per million (rpm) [4]: 286.5 rpm
- Log2 differential normalized TPM ratio compared to glucose [5]: 2.1
- Log2 differential normalized TPM ratio compared to lactose [5]: 0.4
- Transcripts per million (rpm) [5]: 50.6 rpm
- Log2 differential normalized TPM ratio compared to glucose [6]: 2.6
- Log2 differential normalized TPM ratio compared to lactose [6]: 2.5
- Transcripts per million (rpm) [6]: 592 rpm
- Log2 differential normalized TPM ratio compared to glucose [7]: 1.8
- Log2 differential normalized TPM ratio compared to lactose [7]: 1.4
- Transcripts per million (rpm) [7]: 179.3 rpm
- Log2 differential normalized TPM ratio compared to glucose [8]: 1.8
- Log2 differential normalized TPM ratio compared to lactose [8]: 0.9
- Transcripts per million (rpm) [8]: 5745.2 rpm
- Log2 differential normalized TPM ratio compared to glucose [9]: 1.6
- Log2 differential normalized TPM ratio compared to lactose [9]: 2.3
- Transcripts per million (rpm) [9]: 155 rpm
- Log2 differential normalized TPM ratio compared to glucose [10]: 1.2
- Log2 differential normalized TPM ratio compared to lactose [10]: 0.9
- Transcripts per million (rpm) [10]: 15.5 rpm
- Log2 differential normalized TPM ratio compared to glucose [11]: 1.3
- Log2 differential normalized TPM ratio compared to lactose [11]: 0.1
- Transcripts per million (rpm) [11]: 151.3 rpm
- Log2 differential normalized TPM ratio compared to glucose [12]: −0.9
- Log2 differential normalized TPM ratio compared to lactose [12]: 1.5
- Transcripts per million (rpm) [12]: 1.5 rpm
- Log2 differential normalized TPM ratio compared to glucose [13]: 2.7
- Log2 differential normalized TPM ratio compared to lactose [13]: 1.7
- Transcripts per million (rpm) [13]: 845.1 rpm
- Log2 differential normalized TPM ratio compared to glucose [14]: 2.4
- Log2 differential normalized TPM ratio compared to lactose [14]: 2
- Transcripts per million (rpm) [14]: 797.3 rpm
- Log2 differential normalized TPM ratio compared to glucose [15]: 2
- Log2 differential normalized TPM ratio compared to lactose [15]: 1.1
- Transcripts per million (rpm) [15]: 851.3 rpm
- Log2 differential normalized TPM ratio compared to glucose [16]: 2.3
- Log2 differential normalized TPM ratio compared to lactose [16]: 2.5
- Transcripts per million (rpm) [16]: 537 rpm
- Log2 differential normalized TPM ratio compared to glucose [17]: 1.7
- Log2 differential normalized TPM ratio compared to lactose [17]: 0.6
- Transcripts per million (rpm) [17]: 7.3 rpm
- Log2 differential normalized TPM ratio compared to glucose [18]: 4.9
- Log2 differential normalized TPM ratio compared to lactose [18]: 1.1
- Transcripts per million (rpm) [18]: 84.9 rpm
- Log2 differential normalized TPM ratio compared to glucose [19]: 3.2
- Log2 differential normalized TPM ratio compared to lactose [19]: −2.4
- Transcripts per million (rpm) [19]: 144.7 rpm
- Log2 differential normalized TPM ratio compared to glucose [20]: 3.4
- Log2 differential normalized TPM ratio compared to lactose [20]: −2.3
- Transcripts per million (rpm) [20]: 144 rpm
- Log2 differential normalized TPM ratio compared to glucose (LBA1459 Galactokinase, COG G): 2.3
- Log2 differential normalized TPM ratio compared to lactose (LBA1459 Galactokinase, COG G): −2.4
- Transcripts per million (rpm) (LBA1459 Galactokinase, COG G): 123.5 rpm
- Log2 differential normalized TPM ratio compared to glucose [21]: −0.5
- Log2 differential normalized TPM ratio compared to lactose [21]: −6.5
- Transcripts per million (rpm) [21]: 13 rpm
- Log2 differential normalized TPM ratio compared to glucose [22]: −0.3
- Log2 differential normalized TPM ratio compared to lactose [22]: −5
- Transcripts per million (rpm) [22]: 47.8 rpm
- Log2 differential normalized TPM ratio compared to glucose (LBA1464 Transposase, COG L): −1
- Log2 differential normalized TPM ratio compared to lactose (LBA1464 Transposase, COG L): −3.4
- Transcripts per million (rpm) (LBA1464 Transposase, COG L): 94.4 rpm
- Log2 differential normalized TPM ratio compared to glucose [23]: −0.3
- Log2 differential normalized TPM ratio compared to lactose [23]: −3.4
- Transcripts per million (rpm) [23]: 47.3 rpm
- Log2 differential normalized TPM ratio compared to glucose [24]: 2.2
- Log2 differential normalized TPM ratio compared to lactose [24]: −6.7
- Transcripts per million (rpm) [24]: 24.1 rpm
- Log2 differential normalized TPM ratio compared to glucose [25]: 0.8
- Log2 differential normalized TPM ratio compared to lactose [25]: −5.6
